According to patent US10053451B2, “Heterocyclic estrogen receptor modulators and uses thereof” (priority 2015, dated 2018):

biological target: T1, estrogen receptor alpha (ESR1) (Homo sapiens, UniProt P03372); experiment: Breast Cancer Cell ERa High Content Fluorescence Imaging Assay (ER-alpha MCF7 Assay); format: cell-based; details: MCF7 cells, 4 hours; plateau of maximal effect; DMSO = 0%, 5 nM Fulvestrant = 100% change in ESR1
T1 construct: MCF7 cells were trypsinized and washed twice; endogenous in cells; host or cells: MCF7 breast cancer cells
T1 sequence (P03372 1-595): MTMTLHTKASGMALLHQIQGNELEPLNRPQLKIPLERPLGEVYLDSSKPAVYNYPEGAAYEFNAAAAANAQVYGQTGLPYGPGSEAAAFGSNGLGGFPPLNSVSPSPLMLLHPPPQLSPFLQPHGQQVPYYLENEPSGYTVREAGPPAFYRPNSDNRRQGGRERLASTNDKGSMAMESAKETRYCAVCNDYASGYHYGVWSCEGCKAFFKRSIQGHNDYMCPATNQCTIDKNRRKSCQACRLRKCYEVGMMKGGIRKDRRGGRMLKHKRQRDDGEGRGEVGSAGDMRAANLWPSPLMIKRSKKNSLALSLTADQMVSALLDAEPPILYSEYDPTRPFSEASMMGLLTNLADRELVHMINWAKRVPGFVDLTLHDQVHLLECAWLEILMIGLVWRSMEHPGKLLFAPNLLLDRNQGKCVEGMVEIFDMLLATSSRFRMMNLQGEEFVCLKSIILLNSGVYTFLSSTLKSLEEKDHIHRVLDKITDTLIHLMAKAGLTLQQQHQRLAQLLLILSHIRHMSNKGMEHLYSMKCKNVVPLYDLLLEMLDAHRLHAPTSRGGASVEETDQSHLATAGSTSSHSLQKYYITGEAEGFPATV
Procedure: Cell plates were incubated at 37° C., for 4 hours. Fixation and permeabilization were carried out using a Biotek EL406 plate washer and dispenser as follows. […] Samples were incubated 30 minutes. Well contents was aspirated and 50 uL/well of Phosphate Buffered Saline (PBS) containing 0.5% w/v bovine serum albumen, 0.5% v/v Triton X-100 (Antibody Dilution Buffer) was added to each well. Samples were incubated for 30 minutes. Well contents were aspirated and washed 3 times with 100 uL/well of PBS. Immunofluorescence staining of estrogen receptor alpha (ESR1) was carried out using a Biotek EL406 plate washer and dispenser as follows. […] Samples were incubated for 2 hours at room temperature. Samples were washed 4 times with 100 uL/well of PBS. […] Samples were incubated for 2 hours at room temperature. Samples were washed 3 times with 100 uL/well of PBS using a Biotek EL406. Quantitative fluorescence imaging of ESR1 was carried out using a Cellomics Arrayscan V (Thermo). […] Channel 1 (DNA stain) was used to define the nuclear region (Circ). […] The “Robust Fit” method was used to define the inflexion point of curve (EC50) and the plateau of the maximal effect (Sinf).

`CC(C)=CC1=C(C)c2cc(O)ccc2OC1c1ccc(OCCN2CC(CF)C2)cc1` (stereo not shown) [Example 16, 2-[4-[2-[3-(Fluoromethyl)azetidin-1-yl]ethoxy]phenyl]-4-methyl-3-(2-methylprop-1-enyl)-2H-chromen-6-ol] and `CC1=C(CC(C)C)C(c2ccc(OCCN3CC(CF)C3)cc2)Oc2ccc(O)cc21` (stereo not shown) [Example 17, 2-(4-(2-(3-(Fluoromethyl)azetidin-1-yl)ethoxy)phenyl)-3-isobutyl-4-methyl-2H-chromen-6-ol] are the same in “ER-alpha MCF7 Sinf (%)” value: 93.9% for the first, 93.9% for the second.

Compared with `CC1=C(C2=CCNC2)C(c2ccc(OCCN3CC(CF)C3)cc2)Oc2ccc(O)cc21` (stereo not shown) [Example 18, 3-(2,5-dihydro-1H-pyrrol-3-yl)-2-(4-(2-(3-(fluoromethyl)azetidin-1-yl)ethoxy)phenyl)-4-methyl-2H-chromen-6-ol], `CC1=C(C2=CCOC2)C(c2ccc(OCCN3CC(CF)C3)cc2)Oc2ccc(O)cc21` (stereo not shown) [Example 30, 3-(2,5-dihydrofuran-3-yl)-2-(4-(2-(3-(fluoromethyl)azetidin-1-yl)ethoxy)phenyl)-4-methyl-2H-chromen-6-ol] is higher in “ER-alpha MCF7 Sinf (%)” value: 90.0% for the first, 97.9% for the second.

Compared with `CC(=O)N1CCC(C2=C(C)c3cc(O)ccc3OC2c2ccc(OCCN3CC(CF)C3)cc2)C1` (stereo not shown) [Example 19, 1-(3-(2-(4-(2-(3-(Fluoromethyl)azetidin-1-yl)ethoxy)phenyl)-6-hydroxy-4-methyl-2H-chromen-3-yl)pyrrolidin-1-yl)ethanone], `CNC(=O)N1CCC(C2=C(C)c3cc(O)ccc3OC2c2ccc(OCCN3CC(CF)C3)cc2)CC1` (stereo not shown) [Example 31, 4-(2-(4-(2-(3-(fluoromethyl)azetidin-1-yl)ethoxy)phenyl)-6-hydroxy-4-methyl-2H-chromen-3-yl)-N-methylpiperidine-1-carboxamide] is higher in “ER-alpha MCF7 Sinf (%)” value: 80% for the first, 85.9% for the second.

Compared with `CC(=O)N1CC=C(C2=C(C)c3cc(O)ccc3OC2c2ccc(OCCN3CC(CF)C3)cc2)C1` (stereo not shown) [Example 20, 1-(3-(2-(4-(2-(3-(Fluoromethyl)azetidin-1-yl)ethoxy)phenyl)-6-hydroxy-4-methyl-2H-chromen-3-yl)-2,5-dihydro-1H-pyrrol-1-yl)ethanone], `CC1=C(C2=CCC(O)CC2)C(c2ccc(OCCN3CC(CF)C3)cc2)Oc2ccc(O)cc21` (stereo not shown) [Example 21, 2-(4-(2-(3-(Fluoromethyl)azetidin-1-yl)ethoxy)phenyl)-3-(4-hydroxycyclohex-1-en-1-yl)-4-methyl-2H-chromen-6-ol] is higher in “ER-alpha MCF7 Sinf (%)” value: 93.7% for the first, 98.7% for the second.

First: CC1=C(c2ncc(C#N)cc2C)C(c2ccc(OCCN3CC(CF)C3)cc2)Oc2ccc(O)cc21 (stereo not shown) [Example 22, 2-{4-[2-(3-Fluoromethyl-azetidin-1-yl)-ethoxy]-phenyl}-4-methyl-3-(3-methyl-5-cyano-pyridin-2-yl)-2H-chromen-6-ol]
Second: CC1=C(c2ccncc2C)C(c2ccc(OCCN3CC(CF)C3)cc2)Oc2ccc(O)cc21 (stereo not shown) [Example 32, 2-{4-[2-(3-Fluoromethyl-azetidin-1-yl)-ethoxy]-phenyl}-4-methyl-3-(3-methyl-pyridin-4-yl)-2H-chromen-6-ol]
The “ER-alpha MCF7 Sinf (%)” value of the first is lower: 97.4% for the first, 99.4% for the second.

Compared with `CC1=C(C2CCOCC2)C(c2ccc(OCCN3CC(CF)C3)cc2)Oc2ccc(O)cc21` (stereo not shown) [Example 24, 2-(4-(2-(3-(fluoromethyl)azetidin-1-yl)ethoxy)phenyl)-4-methyl-3-(tetrahydro-2H-pyran-4-yl)-2H-chromen-6-ol], `CC1=C(C2CCOC2)C(c2ccc(OCCN3CC(CF)C3)cc2)Oc2ccc(O)cc21` (stereo not shown) [Example 29, 2-(4-(2-(3-(fluoromethyl)azetidin-1-yl)ethoxy)phenyl)-4-methyl-3-(tetrahydrofuran-3-yl)-2H-chromen-6-ol] is higher in “ER-alpha MCF7 Sinf (%)” value: 97.7% for the first, 98.9% for the second.

`CC1=C(C2=CCC(F)(F)CC2)C(c2ccc(OCCN3CC(CF)C3)cc2)Oc2ccc(O)cc21` (stereo not shown) [Example 26, 3-(4,4-difluorocyclohex-1-en-1-yl)-2-(4-(2-(3-(fluoromethyl)azetidin-1-yl)ethoxy)phenyl)-4-methyl-2H-chromen-6-ol] was tested, and the “ER-alpha MCF7 Sinf (%)” value was 97.1%.
